According to patent US6287840A (Axys Pharmaceuticals, Inc., priority 1999, dated 2001):
Several values for one entry are separate records, joined by “and”; a condition that tells them apart may be missing. Equal entries are not always repeated. Where two headings read alike, the source gives them in different places.

What was measured:
[1] = target: T1, Cathepsin B from human placenta (Homo sapiens, UniProt P07858); assay: Inhibition of cathepsin B, Z-Arg-Arg-AMC fluorescence progress curves; format: biochemical; conditions: for k/KI (kirr/KI): values without asterisk, 25° C., pH 6.2
T1 construct: Cathepsin B from human placenta, obtained from Sigma; purchased Sigma; host or cells: human placenta (tissue)
Procedure, shortened: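 Human placental enzyme (~10 nM) in 50 mM phosphate pH 6.2 with 2.5 mM DTT and 2.5 mM EDTA, 50 μM Z-Arg-Arg-AMC, inhibitors 30-0.001 μM, 25° C. AMC fluorescence (ex 380/em 460 nm) progress curves fitted for kobs; kobs/[I] reported, with kirr, KI and kirr/KI substrate-corrected for selected compounds.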

cruzain, from T. cruzi = cruzain, from T. cruzi (Trypanosoma cruzi, UniProt P25779); assay: Inhibition of cruzain, as for cathepsin L; format: biochemical; conditions: for k/KI (kirr/KI): values without asterisk
cruzain, from T. cruzi, sequence (P25779 123-337 limits assumed): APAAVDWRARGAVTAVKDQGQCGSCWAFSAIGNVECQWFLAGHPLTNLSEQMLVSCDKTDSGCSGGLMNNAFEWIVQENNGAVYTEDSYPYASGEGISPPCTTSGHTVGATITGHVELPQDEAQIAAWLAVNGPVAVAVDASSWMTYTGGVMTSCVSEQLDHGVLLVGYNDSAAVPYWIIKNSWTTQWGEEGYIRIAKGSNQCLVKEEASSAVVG
Procedure, shortened: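 Run as for cathepsin L with 1 nM cruzain in 50 mM phosphate pH […], 2.5 mM DTT, 2.5 mM EDTA, 5 μM Z-Phe-Arg-AMC, at 25 °C, inhibitors 30-0.001 μM; fluorescence (ex 380/em 460 nm) followed continuously. kobs fitted from progress curves and kobs/[I] reported; selected compounds gave kirr, KI, kirr/KI, with KI corrected by (1+[S]/Km).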

[2] = test system: Leishmania donovani amastigote infected mouse peritoneal macrophages; assay: In vitro antiprotozoal activity, Leishmania donovani; format: cell-based; set-up: key to percentage inhibition, L. donovani: the term "T" indicates the molecule to have displayed cytotoxicity
Procedure: (§1) In this table, the in vitro antiprotozoal activities of the indicated compounds were measured as percentage inhibition of Leishmania donovani amastigote infecteda mouse peritoneal macrophages, Trypanosoma cruzi amastigote infected macrophages, and Trypanosoma brucei extracellular bloodstream forms.

[3] = test system: Trypanosoma cruzi amastigote infected macrophages; assay: In vitro antiprotozoal activity, Trypanosoma cruzi; format: cell-based; set-up: key to percentage inhibition, T. cruzi: the term "T" indicates the molecule to have displayed cytotoxicity
Procedure: as §1

[4] = test system: Trypanosoma brucei extracellular bloodstream forms; assay: In vitro antiprotozoal activity, Trypanosoma brucei; format: cell-based
Procedure: as §1

Female Lewis rats = assay: Mycobacterium butyricum induced arthritis in rats, compound in chow, 28 days; format: in vivo, rat
Procedure: At day zero, Female Lewis rats (5/group), 5 weeks old, were given intradermal injection into the base of the tail of Mycobacterium butyricum in 0.1 ml of light mineral oil. The animals were provided Teklad (4%) rat chow mixed with (treated groups) or without compound (control group) and water ad libilum. The compounds used were Mu-Phe-HphVSPh, Mu-Leu-HphVSPh, Mu-Tyr-HphVSPh, Mu-Phe-Lys(ε-Z)VSPh, Mu-Phe-LysVSPh-HBr. The compounds were given to three groups at 3, 10, and 30 mg/kg/day, respectively. The following parameters were noted: biweekly weights and biweekly joint evaluations by the following scoring system: paw swelling 0=no edema, 1=slight edema of small digital joints, 2=edema of the digital joints and foot pad, 3=gross edema of the entire foot pad below that ankle or elbow, 4=gross edema of the entire foot pad including the ankle and elbow joint Erythema was scored as: 0=normal, 1=pink, 2=red, 3=deep violaceous. The evaluators were blinded as to treatment groups.
After 28 days the animals were killed and the hind paws and knees were removed and fixed in 4% paraformaldehyde. […] Joint histopathology scores were calculated by the following method: two sections of each joint were read for synovial cell proliferation, cartilage erosion, bone erosion, fibroproliferative pannus, diffuse inflammatory synovitis, and synovial vasculitis: 0=normal, 1=mild, 2=moderate, 3=and severe. […]

U251MGn = assay: Matrigel barrier migration assay, U251MGn; format: cell-based, human; set-up: dose or concentration left out as unconfirmed
Procedure: Two permanent human glioma cell lines (U87MG and U251MGn) and a well characterized low passage primary culture derived from a CB-positive glioblastoma (HF66) were used to assess the migratory behavior in the Matrigel barrier migration assay in the presence of graded concentrations of four compounds.
Using the Matrigel assay, Mu-Leu-HphVSPh, Mu-Tyr-HphVSPh, Mu-Phe-HphVSPh, and Mu-Tyr(I2)-HphVSPh (all at 10 mM) inhibited U251MGn by 67, 56, 29, & 20% respectively, while the U87MG cells were inhibited 53, 75, 63, & 56% respectively. The primary culture HF66 cells were inhibited only 10% by these compounds at the same concentration.

k/KI (kirr/KI) [1] | Ki (cruzain, from T. cruzi) [µM] | kirr (cruzain, from T. cruzi) [s⁻¹] | k/KI (kirr/KI) (cruzain, from T. cruzi) | Compound | percentage inhibition, L. donovani ([2]; 3 uM) [%] | percentage inhibition, L. donovani ([2]; 10 uM) [%] | percentage inhibition, L. donovani ([2]; 30 uM) [%] | percentage inhibition, L. donovani ([2]; 90 uM) | percentage inhibition, T. cruzi ([3]; 3 uM) [%] | percentage inhibition, T. cruzi ([3]; 10 uM) [%] | percentage inhibition, T. cruzi ([3]; 30 uM) [%] | percentage inhibition, T. cruzi ([3]; 90 uM) | percentage inhibition, T. brucei ([4]; 3 uM) [%] | percentage inhibition, T. brucei ([4]; 10 uM) [%] | percentage inhibition, T. brucei ([4]; 30 uM) [%] | percentage inhibition, T. brucei ([4]; 90 uM) [%] | inhibition of U251MGn migration (U251MGn) [%] | other results
16,400 M^-1 sec^-1 | 3.2 | 0.43 | 134,000 M^-1 sec^-1 | O=C(N[C@H](/C=C/S(=O)(=O)c1ccccc1)CCc1ccccc1)C(Cc1ccccc1)NC(=O)N1CCOCC1 (stereo partly drawn) [Mu-Phe-HphVSPh, (S)-(E)-3-(4-morpholinecarbonyl-phenylalanyl)amino-5-phenyl-1-phenylsulfonyl-1-pentene] | 0 | 0 | 9.4 | T | 10 | 10 | 50.1 | T | 90.5 | 82.7 | 100 | 100 | 29 | kirr [1]: 0.17 s⁻¹; Ki ([1]; corrected for substrate): 11 µM; kirr ([1]; listed as Mu-Phe-Hph-VSPh): 0.061 s⁻¹ and 0.12 s⁻¹; ED50, T. brucei [4]: 2.19 µM; percentage inhibition, T. brucei ([4]; 1 uM): 10.2%; effect on all scores (paw swelling, erythema, joint histopathology) (Female Lewis rats; 3, 10, and 30 mg/kg/day in chow, 28 days): dose dependent beneficial effect on all scores
4250 M⁻¹ s⁻¹ | 0.52 | 0.11 | 213,000 M^-1 sec^-1 | CC(C)C[C@H](NC(=O)N1CCOCC1)C(=O)N[C@H](/C=C/S(=O)(=O)c1ccccc1)CCc1ccccc1 [Mu-Leu-HphVSPh, (S)-(E)-3-(4-morpholinecarbonylleucyl)amino-5-phenyl-1-phenylsulfonyl-1-pentene] | 4.6 | 0 | 15.3 | T | 0 | 0 | 11.4 | T | 11.2 | 82.2 | 84.7 | 100 | 67 | bone and cartilage destruction (Female Lewis rats; high dose): reduction in bone and cartilage destruction
